{"source": "patent US20230061736A1", "about": "“GPR119 AGONISTS” (Kallyope, Inc., priority 2019, published 2023)", "molecular_target": "T1, human GPR119 (hGPR119) (Homo sapiens, UniProt Q8TDV5)", "T1 construct": "expressed in transfected cells", "T1 sequence (Q8TDV5 1-335)": "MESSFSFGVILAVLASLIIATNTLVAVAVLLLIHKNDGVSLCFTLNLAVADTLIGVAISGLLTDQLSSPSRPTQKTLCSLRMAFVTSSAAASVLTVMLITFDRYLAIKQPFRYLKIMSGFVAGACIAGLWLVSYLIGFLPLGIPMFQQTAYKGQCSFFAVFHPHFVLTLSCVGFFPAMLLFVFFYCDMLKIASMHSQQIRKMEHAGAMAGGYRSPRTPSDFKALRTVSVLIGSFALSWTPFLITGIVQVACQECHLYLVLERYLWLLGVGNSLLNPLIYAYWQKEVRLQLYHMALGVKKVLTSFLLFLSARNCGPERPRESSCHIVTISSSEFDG", "test": "cAMP accumulation assay (cAMP Gs dynamic HTRF kit)", "assay_type": "cell-based", "settings": "CHO-K1 cells stably expressing hGPR119, 4-parameter fit; for Emax: 1 h, % activity normalized to Max/Min controls; for EC50: cAMP accumulation", "outline": "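CHO-K1 cells stably expressing hGPR119, used as assay-ready frozen stocks at ~10,000 cells/well, exposed to compound dose-response in stimulation buffer with Tween 80 for 60 min at 37° C. cAMP read by HTRF (665/620 nm ratio), normalised to Max/Min controls; EC50 and Max activity from 4-parameter fit.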", "data": [{"compound": "O=C(NCCCCCCS(=O)(=O)O)C1CN(C(=O)Cc2ccc(OCCCC3CCN(c4ncc(Cl)cn4)CC3)cc2F)C1", "note": "[Example 175, 6-[[1-[2-[4-[3-[1-(5-chloropyrimidin-2-yl)-4-piperidyl]propoxy]-2-fluoro-phenyl]acetyl]azetidine-3-carbonyl]amino]hexane-1-sulfonic acid]", "values": [{"measurement": "Emax", "result": "100 to 130", "unit": "%"}, {"measurement": "EC50", "result": "100 to 1000", "unit": "nM"}]}, {"compound": "O=C(CC1CN(C(=O)Cc2ccc(OCCCC3CCN(c4ncc(Cl)cn4)CC3)cc2F)C1)NCCS(=O)(=O)O", "note": "[Example 176, 2-[[2-[1-[2-[4-[3-[1-(5-chloropyrimidin-2-yl)-4-piperidyl]propoxy]-2-fluoro-phenyl]acetyl]azetidin-3-yl]acetyl]amino]ethanesulfonic acid]", "values": [{"measurement": "Emax", "result": "100 to 130", "unit": "%"}, {"measurement": "EC50", "result": "100 to 1000", "unit": "nM"}]}, {"compound": "O=C(CC1CN(C(=O)Cc2ccc(OCCCC3CCN(c4ncc(Cl)cn4)CC3)cc2F)C1)NCCCS(=O)(=O)O", "note": "[Example 177, 3-[[2-[1-[2-[4-[3-[1-(5-chloropyrimidin-2-yl)-4-piperidyl]propoxy]-2-fluoro-phenyl]acetyl]azetidin-3-yl]acetyl]amino]propane-1-sulfonic acid]", "values": [{"measurement": "Emax", "result": "100 to 130", "unit": "%"}, {"measurement": "EC50", "result": "100 to 1000", "unit": "nM"}]}, {"compound": "O=C(CC1CN(C(=O)Cc2ccc(OCCCC3CCN(c4ncc(Cl)cn4)CC3)cc2F)C1)NCCCCS(=O)(=O)O", "note": "[Example 178, 4-[[2-[1-[2-[4-[3-[1-(5-chloropyrimidin-2-yl)-4-piperidyl]propoxy]-2-fluoro-phenyl]acetyl]azetidin-3-yl]acetyl]amino]butane-1-sulfonic acid]", "values": [{"measurement": "Emax", "result": "100 to 130", "unit": "%"}, {"measurement": "EC50", "result": "100 to 1000", "unit": "nM"}]}, {"compound": "O=C(Cc1ccc(OCCCC2CCN(c3ncc(Cl)cn3)CC2)nc1)N1CC(CNC[C@H](O)[C@@H](O)[C@H](O)[C@H](O)CO)C1", "note": "[Example 179, 2-[6-[3-[1-(5-chloropyrimidin-2-yl)-4-piperidyl]propoxy]-3-pyridyl]-1-[3-[[[(2S,3R,4R,5R)-2,3,4,5,6-pentahydroxyhexyl]amino]methyl]azetidin-1-yl]ethanone]", "values": [{"measurement": "Emax", "result": "100 to 130", "unit": "%"}, {"measurement": "EC50", "result": "1000 to 10000", "unit": "nM"}]}, {"compound": "O=C(Cc1ccc(OCCCC2CCN(c3ncc(Cl)cn3)CC2)cc1F)N1CCC(O)(CNCC(CO)(CO)CO)C1", "note": "(centres unmarked) [Example 180, 2-[4-[3-[1-(5-chloropyrimidin-2-yl)-4-piperidyl]propoxy]-2-fluoro-phenyl]-1-[3-hydroxy-3-[[[3-hydroxy-2,2-bis(hydroxymethyl)propyl]amino]methyl]pyrrolidin-1-yl]ethanone]", "values": [{"measurement": "Emax", "result": "100 to 130", "unit": "%"}, {"measurement": "EC50", "result": "≤ 100", "unit": "nM"}]}, {"compound": "O=C(Cc1ccc(OCCCC2CCN(c3ncc(Cl)cn3)CC2)cc1F)N1CCC(O)(C(=O)NC[C@H](O)[C@@H](O)[C@H](O)[C@H](O)CO)C1", "note": "(stereo partly drawn) [Example 181, 1-[2-[4-[3-[1-(5-chloropyrimidin-2-yl)-4-piperidyl]propoxy]-2-fluoro-phenyl]acetyl]-3-hydroxy-N-[(2S,3R,4R,5R)-2,3,4,5,6-pentahydroxyhexyl]pyrrolidine-3-carboxamide]", "values": [{"measurement": "Emax", "result": "100 to 130", "unit": "%"}, {"measurement": "EC50", "result": "≤ 100", "unit": "nM"}]}, {"compound": "O=C(Cc1ccc(OCCCC2CCN(c3ncc(Cl)cn3)CC2)cc1F)N1CCC(O)(C(=O)NCC(CO)(CO)CO)C1", "note": "(centres unmarked) [Example 182, 1-[2-[4-[3-[1-(5-chloropyrimidin-2-yl)-4-piperidyl]propoxy]-2-fluoro-phenyl]acetyl]-3-hydroxy-N-[3-hydroxy-2,2-bis (hydroxymethyl)propyl]pyrrolidine-3-carboxamide]", "values": [{"measurement": "Emax", "result": "100 to 130", "unit": "%"}, {"measurement": "EC50", "result": "≤ 100", "unit": "nM"}]}, {"compound": "O=C(Cc1ccc(OCCCC2CCN(c3ncc(Cl)cn3)CC2)cc1F)N1CCC(O)(CNCC(CO)(CO)CO)CC1", "note": "[Example 183, 2-[4-[3-[1-(5-chloropyrimidin-2-yl)-4-piperidyl]propoxy]-2-fluoro-phenyl]-1-[4-hydroxy-4-[[[3-hydroxy-2,2-bis (hydroxymethyl)propyl]amino]methyl]-1-piperidyl]ethanone]", "values": [{"measurement": "Emax", "result": "100 to 130", "unit": "%"}, {"measurement": "EC50", "result": "≤ 100", "unit": "nM"}]}, {"compound": "O=C(CC1(O)CN(C(=O)Cc2ccc(OCCCC3CCN(c4ncc(Cl)cn4)CC3)cc2F)C1)NCC(CO)(CO)CO", "note": "[Example 184, 2-[1-[2-[4-[3-[1-(5-chloropyrimidin-2-yl)-4-piperidyl]propoxy]-2-fluoro-phenyl]acetyl]-3-hydroxy-azetidin-3-yl]-N-[3-hydroxy-2,2-bis(hydroxymethyl)propyl]acetamide]", "values": [{"measurement": "Emax", "result": "100 to 130", "unit": "%"}, {"measurement": "EC50", "result": "≤ 100", "unit": "nM"}]}, {"compound": "O=C(Cc1ccc(OCCCC2CCN(c3ncc(Cl)cn3)CC2)cc1F)N1CC(O)(CNC[C@H](O)[C@H](O)[C@H](O)CO)C1", "note": "[Example 185, 2-[4-[3-[1-(5-chloropyrimidin-2-yl)-4-piperidyl]propoxy]-2-fluoro-phenyl]-1-[3-hydroxy-3-[[[(2S,3S,4R)-2,3,4,5-tetrahydroxypentyl]amino]methyl]azetidin-1-yl]ethanone]", "values": [{"measurement": "Emax", "result": "100 to 130", "unit": "%"}, {"measurement": "EC50", "result": "≤ 100", "unit": "nM"}]}, {"compound": "O=C(Cc1ccc(OCCCC2CCN(c3ncc(Cl)cn3)CC2)cc1F)N1CCC(O)(CNC[C@H](O)[C@H](O)[C@H](O)CO)C1", "note": "(stereo partly drawn) [Example 186, 2-[4-[3-[1-(5-chloropyrimidin-2-yl)-4-piperidyl]propoxy]-2-fluoro-phenyl]-1-[3-hydroxy-3-[[[(2S,3S,4R)-2,3,4,5-tetrahydroxypentyl]amino]methyl]pyrrolidin-1-yl]ethanone]", "values": [{"measurement": "Emax", "result": "≥ 130", "unit": "%"}, {"measurement": "EC50", "result": "≤ 100", "unit": "nM"}]}, {"compound": "O=C(Cc1ccc(OCCCC2CCN(c3ncc(Cl)cn3)CC2)cc1F)N1CCC(O)(CNC[C@H](O)[C@H](O)[C@H](O)CO)CC1", "note": "[Example 187, 2-[4-[3-[1-(5-chloropyrimidin-2-yl)-4-piperidyl]propoxy]-2-fluoro-phenyl]-1-[4-hydroxy-4-[[[(2S,3S,4R)-2,3,4,5-tetrahydroxypentyl]amino]methyl]-1-piperidyl]ethanone]", "values": [{"measurement": "Emax", "result": "100 to 130", "unit": "%"}, {"measurement": "EC50", "result": "≤ 100", "unit": "nM"}]}, {"compound": "O=C(Cc1c(F)cc(OCCCC2CCN(c3ncc(Cl)cn3)CC2)cc1F)N1CCC(O)(CNCC(CO)(CO)CO)C1", "note": "(centres unmarked) [Example 188, 2-[4-[3-[1-(5-chloropyrimidin-2-yl)-4-piperidyl]propoxy]-2,6-difluoro-phenyl]-1-[3-hydroxy-3-[[[3-hydroxy-2,2-bis(hydroxymethyl)propyl]amino]methyl]pyrrolidin-1-yl]ethanone]", "values": [{"measurement": "Emax", "result": "100 to 130", "unit": "%"}, {"measurement": "EC50", "result": "≤ 100", "unit": "nM"}]}, {"compound": "CCOc1cnc(N2CCC(CCCOc3cc(F)c(CC(=O)N4CCC(O)(CNCC(CO)(CO)CO)C4)c(F)c3)CC2)nc1", "note": "(centres unmarked) [Example 189, 2-[4-[3-[1-(5-ethoxypyrimidin-2-yl)-4-piperidyl]propoxy]-2,6-difluoro-phenyl]-1-[3-hydroxy-3-[[[3-hydroxy-2,2-bis(hydroxymethyl)propyl]amino]methyl]pyrrolidin-1-yl]ethanone]", "values": [{"measurement": "Emax", "result": "100 to 130", "unit": "%"}, {"measurement": "EC50", "result": "≤ 100", "unit": "nM"}]}, {"compound": "COCc1cnc(N2CCC(CCCOc3cc(F)c(CC(=O)N4CCC(O)(CNCC(CO)(CO)CO)C4)c(F)c3)CC2)nc1", "note": "(centres unmarked) [Example 190, 2-[2,6-difluoro-4-[3-[1-[5-(methoxymethyl)pyrimidin-2-yl]-4-piperidyl]propoxy]phenyl]-1-[3-hydroxy-3-[[[3-hydroxy-2,2-bis(hydroxymethyl)propyl]amino]methyl]pyrrolidin-1-yl]ethanone]", "values": [{"measurement": "Emax", "result": "100 to 130", "unit": "%"}, {"measurement": "EC50", "result": "≤ 100", "unit": "nM"}]}]}
